According to PubChem BioAssay AID248 (DTP/NCI, 2004):
Toxic doses and inconclusive results are not listed. Rule as the data show it: active = T/C of 150% or more; inactive = T/C below 125%. Peptide text beside a SMILES is read from it. * marks the point of attachment. Boc = CC(C)(C)OC(=O)*

Test system: L1210 leukemia ip in BDF1 mice, survival T/C
Experiment: NCI In Vivo Anticancer Drug Screen. Data for tumor model L1210 Leukemia (intraperitoneal) in B6D2F1 (BDF1) mice
Conditions: endpoint: mean survival time, higher = longer survival
Method in brief: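 Mice bearing the transplanted tumor received compound or vehicle. Survival of the treated group was divided by that of the vehicle-treated control group to give the ratio.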

[1] = dose: 100.0 mg/kg/injection, schedule: Q01DX009 (ip), vehicle: saline
[2] = dose: 200.0 mg/kg/injection, schedule: Q01DX009 (ip), vehicle: saline
[3] = dose: 400.0 mg/kg/injection, schedule: Q01DX009 (ip), vehicle: saline
[4] = dose: 100.0 mg/kg/injection, schedule: Q04DX003 (ip), vehicle: saline
[5] = dose: 200.0 mg/kg/injection, schedule: Q04DX003 (ip), vehicle: saline
[6] = dose: 400.0 mg/kg/injection, schedule: Q04DX003 (ip), vehicle: saline
[7] = dose: 100.0 mg/kg/injection, schedule: Q01DX009 (ip), vehicle: saline with Tween-80
[8] = dose: 200.0 mg/kg/injection, schedule: Q01DX009 (ip), vehicle: saline with Tween-80
[9] = dose: 100.0 mg/kg/injection, schedule: Q01DX001 (ip), vehicle: saline
[10] = dose: 200.0 mg/kg/injection, schedule: Q01DX001 (ip), vehicle: saline
[11] = dose: 400.0 mg/kg/injection, schedule: Q01DX001 (ip), vehicle: saline
[12] = dose: 100.0 mg/kg/injection, schedule: Q04DX003 (ip), vehicle: Klucel (hydroxypropylcellulose) (HPC)

Measured: T/C

NC(C(=O)O)C(N)(CC(=O)O)C(=O)O (stereo unspecified)
inactive: dose: 100.0 mg/kg/injection, schedule: Q04DX002 (ip), vehicle: saline with Tween-80 94 % of control | dose: 200.0 mg/kg/injection, schedule: Q04DX002 (ip), vehicle: saline with Tween-80 94 % of control | dose: 400.0 mg/kg/injection, schedule: Q04DX002 (ip), vehicle: saline with Tween-80 105 % of control

CCOc1ccc(C(C)CC(=O)NN)c(O)c1 (stereo unspecified)
inactive: dose: 75.0 mg/kg/injection, schedule: Q01DX001 (ip), vehicle: saline with Tween-80 95 % of control | dose: 150.0 mg/kg/injection, schedule: Q01DX001 (ip), vehicle: saline with Tween-80 98 % of control | dose: 300.0 mg/kg/injection, schedule: Q01DX001 (ip), vehicle: saline with Tween-80 101 % of control

CCOC(=O)CCN(CC)C(C)=O
inactive: [1] 93 % of control | dose: 100.0 mg/kg/injection, schedule: Q04DX003 (ip), vehicle: saline sonified 101 % of control | [2] 93 % of control | dose: 200.0 mg/kg/injection, schedule: Q04DX003 (ip), vehicle: saline sonified 95 % of control | [3] 93 % of control | dose: 400.0 mg/kg/injection, schedule: Q04DX003 (ip), vehicle: saline sonified 95 % of control

Clc1ccc(C2OCCO2)cc1
inactive: dose: 100.0 mg/kg/injection, schedule: Q01DX009 (ip), vehicle: Klucel (hydroxypropylcellulose) (HPC) 94 % of control | dose: 200.0 mg/kg/injection, schedule: Q01DX009 (ip), vehicle: Klucel (hydroxypropylcellulose) (HPC) 95 % of control | dose: 400.0 mg/kg/injection, schedule: Q01DX009 (ip), vehicle: Klucel (hydroxypropylcellulose) (HPC) 107 % of control

CC(C)CC(NC(=O)OC(C)(C)C)C(=O)NC(Cc1c[nH]c2ccccc12)C(=O)N1CCCC1C(=O)NCC(N)=O (stereo unspecified) (Boc-LWPG-NH2; configuration not given here)
inactive: [4] 93 % of control | [5] 90 % of control | [6] 97 % of control

CN(C)CC/C=C1/c2ccccc2COc2ccccc21
inactive: dose: 6.12 mg/kg/injection, schedule: Q01DX001 (ip), vehicle: water 111 % of control | dose: 6.25 mg/kg/injection, schedule: Q01DX009 (ip), vehicle: saline 103 % of control | dose: 12.5 mg/kg/injection, schedule: Q01DX001 (ip), vehicle: water 113 % of control | dose: 12.5 mg/kg/injection, schedule: Q01DX009 (ip), vehicle: saline 107 % of control | dose: 25.0 mg/kg/injection, schedule: Q01DX001 (ip), vehicle: water 103 % of control | dose: 25.0 mg/kg/injection, schedule: Q01DX009 (ip), vehicle: saline 101 % of control | dose: 25.0 mg/kg/injection, schedule: Q04DX003 (ip), vehicle: saline 109 % of control | dose: 50.0 mg/kg/injection, schedule: Q01DX009 (ip), vehicle: saline 113 % of control | dose: 50.0 mg/kg/injection, schedule: Q04DX003 (ip), vehicle: saline 101 % of control | [4] 93 % of control

NC(=S)c1cccc(OCc2ccccc2)c1
inactive: [7] 106 % of control | [8] 92 % of control

COP(=O)(CCBr)OC
inactive: [9] 103 % of control | [1] 101 % of control | [4] 104 % of control | [10] 102 % of control | [2] 103 % of control | [5] 104 % of control | [11] 108 % of control | [3] 98 % of control | [6] 106 % of control

Cc1ccc(S(=O)(=O)NCCCc2c(C)nc(N)n(Cc3cccc([N+](=O)[O-])c3)c2=O)cc1
inactive: dose: 100.0 mg/kg/injection, schedule: Q01DX001 (ip), vehicle: Klucel (hydroxypropylcellulose) (HPC) 103 % of control | dose: 200.0 mg/kg/injection, schedule: Q01DX001 (ip), vehicle: Klucel (hydroxypropylcellulose) (HPC) 91 % of control | dose: 400.0 mg/kg/injection, schedule: Q01DX001 (ip), vehicle: Klucel (hydroxypropylcellulose) (HPC) 103 % of control

Nc1ccc2nc(N)nc(N)c2c1
inactive: dose: 37.5 mg/kg/injection, schedule: Q01DX009 (ip), vehicle: Klucel (hydroxypropylcellulose) (HPC) 121 % of control | dose: 65.0 mg/kg/injection, schedule: Q04DX003 (ip), vehicle: Klucel (hydroxypropylcellulose) (HPC) 106 % of control | dose: 75.0 mg/kg/injection, schedule: Q01DX009 (ip), vehicle: Klucel (hydroxypropylcellulose) (HPC) 107 % of control | [12] 112 % of control | dose: 150.0 mg/kg/injection, schedule: Q04DX003 (ip), vehicle: Klucel (hydroxypropylcellulose) (HPC) 112 % of control

OCC(O)CCBr (stereo unspecified)
inactive: [9] 100 % of control | [1] 107 % of control | [10] 105 % of control | [2] 115 % of control | [11] 108 % of control

O=C(NO)c1ccccn1
inactive: dose: 90.0 mg/kg/injection, schedule: Q01DX015 (ip), vehicle: water 97 % of control | dose: 130.0 mg/kg/injection, schedule: Q01DX015 (ip), vehicle: water 101 % of control | dose: 133.0 mg/kg/injection, schedule: Q01DX015 (ip), vehicle: water 97 % of control | dose: 200.0 mg/kg/injection, schedule: Q01DX015 (ip), vehicle: water 110 % of control

Nc1ccccc1CSc1nc2nc[nH]c(=O)c2[nH]1
inactive: [12] 95 % of control | dose: 200.0 mg/kg/injection, schedule: Q04DX003 (ip), vehicle: Klucel (hydroxypropylcellulose) (HPC) 95 % of control

O=C(Cn1ccc(=O)[nH]c1=O)c1ccco1
inactive: [4] 102 % of control | [5] 107 % of control | [6] 98 % of control

CC1CCC(C(C)C)C(NCCO)C1 (stereo unspecified)
inactive: dose: 18.8 mg/kg/injection, schedule: Q04DX003 (ip), vehicle: saline 102 % of control | dose: 37.5 mg/kg/injection, schedule: Q04DX003 (ip), vehicle: saline 100 % of control | dose: 75.0 mg/kg/injection, schedule: Q01DX001 (ip), vehicle: saline 103 % of control | dose: 75.0 mg/kg/injection, schedule: Q04DX003 (ip), vehicle: saline 100 % of control

O=C(O)c1cccc(Br)c1[N+](=O)[O-]
inactive: [9] 97 % of control | [10] 101 % of control

Cc1cc(NC(=O)NCc2ccc(N)cc2)ccc1S(=O)(=O)F
inactive: [1] 95 % of control | [4] 100 % of control | [2] 114 % of control | [5] 96 % of control | [3] 93 % of control | [6] 100 % of control

C/C(=N/O)c1ccc(O)cc1
inactive: [7] 103 % of control | [8] 96 % of control | dose: 400.0 mg/kg/injection, schedule: Q01DX009 (ip), vehicle: saline with Tween-80 97 % of control
